Read-outs that look alike come from different tables or passages of the source.
Legend:
[1] = target: T1, human seritonin transporter (Homo sapiens, UniProt P31645); experiment: hSERT receptor binding ([125I]-RTI-55 radioligand binding); settings: membranes of HEK-293 cells transfected with human seritonin transporter, IC50 converted to Ki by Cheng-Prusoff, read-out: SERT (Ki)
T1 construct: host or cells: HEK-293
Excerpt: (§1) The ability of the compounds of this invention to bind to the hNET and serotonin SERT receptor can be determined using conventional radiolig and receptor binding assays. The receptors can be heterologously expressed in cell lines and experiments conducted in membrane preparations from the cell lines using procedures outlined below. IC50 concentrations can be determined by nonlinear regression of concentration-dependent reduction in specific binding. The Cheng-Prussoff equation can be used to convert the IC50 to Ki concentrations.
Cell pastes of HEK-293 cells transfected with the human seritonin transporter were supplied by the Pfizer Ann Arbor Protein Expression and Production group. […] Aliquots of membranes (5 mg/ml protein) were stored in liquid nitrogen until used.
(§2) The reaction was incubated by gentle agitation for 90 min at room temperature and was terminated by filtration through Whatman GF/C filter plates using a Brandel 96-well plate harvester. […] Test compounds were run in duplicate, and specific binding was defined as the difference between binding in the presence and absence of 10 μl M citalopram.
(§3) Excel and GraphPad Prism software were used for data calculation and analysis. IC50 values were converted to Ki values using the Cheng-Prusoff equation.

[2] = target: T2, human norepinephrine transporter (Homo sapiens, UniProt P23975); experiment: hNET receptor binding ([125I]-RTI-55 radioligand binding); settings: membranes of HEK-293 cells transfected with human norepinephrine transporter, IC50 converted to Ki by Cheng-Prusoff
T2 construct: host or cells: HEK-293
Excerpt: as §1
Cell pastes of HEK-293 cells transfected with the human norepinephrine transporter were supplied by the Pfizer Ann Arbor Protein Expression and Production group. […] Aliquots of membranes (5 mg/ml protein) were stored in liquid nitrogen until used.
as §2, with “μM desipramine.” for “μl M citalopram.”
as §3

T2 sequence (P23975 whole entry): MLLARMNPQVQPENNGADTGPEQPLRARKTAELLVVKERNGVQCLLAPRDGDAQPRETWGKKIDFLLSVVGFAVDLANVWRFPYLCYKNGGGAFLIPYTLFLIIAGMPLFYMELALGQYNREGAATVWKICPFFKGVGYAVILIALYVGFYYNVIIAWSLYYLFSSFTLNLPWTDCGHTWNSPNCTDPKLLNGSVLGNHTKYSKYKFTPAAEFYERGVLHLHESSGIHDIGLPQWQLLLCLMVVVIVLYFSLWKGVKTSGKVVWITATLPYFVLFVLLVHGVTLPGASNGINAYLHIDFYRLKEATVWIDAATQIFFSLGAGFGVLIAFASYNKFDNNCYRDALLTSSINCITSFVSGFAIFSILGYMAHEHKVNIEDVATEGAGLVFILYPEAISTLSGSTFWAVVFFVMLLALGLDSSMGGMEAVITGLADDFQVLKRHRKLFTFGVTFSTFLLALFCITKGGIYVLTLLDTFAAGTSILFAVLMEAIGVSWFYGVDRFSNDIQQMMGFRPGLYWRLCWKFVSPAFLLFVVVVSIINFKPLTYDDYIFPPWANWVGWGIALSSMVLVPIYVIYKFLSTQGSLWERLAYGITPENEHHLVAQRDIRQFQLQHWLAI
T1 sequence (P31645 whole entry): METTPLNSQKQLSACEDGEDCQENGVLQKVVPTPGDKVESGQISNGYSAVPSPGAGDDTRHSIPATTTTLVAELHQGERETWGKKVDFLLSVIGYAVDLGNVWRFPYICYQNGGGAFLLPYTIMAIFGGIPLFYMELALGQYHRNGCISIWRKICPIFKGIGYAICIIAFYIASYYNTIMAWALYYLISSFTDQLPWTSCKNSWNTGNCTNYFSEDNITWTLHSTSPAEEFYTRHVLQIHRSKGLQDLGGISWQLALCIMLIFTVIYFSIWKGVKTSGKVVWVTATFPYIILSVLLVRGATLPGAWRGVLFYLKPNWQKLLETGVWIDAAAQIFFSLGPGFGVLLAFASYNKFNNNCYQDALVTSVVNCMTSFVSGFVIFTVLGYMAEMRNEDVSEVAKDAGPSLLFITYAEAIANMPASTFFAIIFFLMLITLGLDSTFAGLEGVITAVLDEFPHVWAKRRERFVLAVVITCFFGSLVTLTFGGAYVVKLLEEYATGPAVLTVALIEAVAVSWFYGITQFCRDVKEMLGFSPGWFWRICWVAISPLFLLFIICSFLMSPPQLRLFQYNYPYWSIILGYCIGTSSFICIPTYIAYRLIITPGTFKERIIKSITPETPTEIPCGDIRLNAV

Ki [1] | Ki ([2]; read-out: hNET (Ki)) | SMILES | Ki ([2]; hNET (Ki))
≥ 10000 nM | 61 nM | c1ccc(Oc2ccccc2O[C@@H](c2ccccc2)[C@@H]2CNCCO2)cc1 [Example 14, (S)-2-[(S)-(2-Phenoxy-phenoxy)-phenyl-methyl]-morpholine] | –
4500 nM | 99 nM | Clc1ccc(-c2ccccc2O[C@@H](c2ccccc2)[C@@H]2CNCCO2)cc1 [Example 16, (S)-2-[((S)-4′-Chloro-biphenyl-2-yloxy)-phenyl-methyl]-morpholine] | –
72 nM | 133 nM | Fc1ccccc1O[C@@H](c1ccccc1)[C@H]1CNCCO1 [Example 18, (R)-2-[(S)-(2-Fluoro-phenoxy)-phenyl-methyl]-morpholine] | –
≥ 10000 nM | 41 nM | Clc1ccccc1-c1ccccc1O[C@@H](c1ccccc1)[C@@H]1CNCCO1 [Example 30, (S)-2-[(S)-(2′-Chloro-biphenyl-2-yloxy)-phenyl-methyl]-morpholine] | –
2410 nM | 22 nM | Fc1ccc(-c2ncccc2O[C@@H](c2ccccc2)[C@@H]2CNCCO2)cc1 [Example 33, (S)-2-{(S)-[2-(4-Fluoro-phenyl)-pyridin-3-yloxy]-phenyl-methyl}-morpholine] | –
184 nM | 141 nM | Fc1ccc([C@H](Oc2ccccc2F)[C@H]2CNCCO2)cc1 [Example 34, (R)-2-[(S)-(2-Fluoro-phenoxy)-(4-fluoro-phenyl)-methyl]-morpholine] | –
605 nM | 11 nM | CCOc1ccccc1OC(c1ccc(F)cc1)[C@H]1CNCCO1 (stereo partly drawn) [Example 35] | –
471 nM | 3.7 nM | Fc1cccc(F)c1O[C@@H](c1ccccc1)[C@@H]1CNCCO1 [Example 36, (S)-2-[(S)-(2,6-Difluoro-phenoxy)-phenyl-methyl]-morpholine] | –
828 nM | 317 nM | c1ccc([C@H](Oc2cccnc2)[C@@H]2CNCCO2)cc1 [Example 40, (S)-2-[(S)-Phenyl-(pyridin-3-yloxy)-methyl]-morpholine] | –
17 nM | 17 nM | Brc1ncccc1O[C@@H](c1ccccc1)[C@@H]1CNCCO1 [Example 41, (S)-2-[(S)-(2-Bromo-pyridin-3-yloxy)-phenyl-methyl]-morpholine] | –
4940 nM | 68 nM | Cc1ccc(-c2ncccc2O[C@@H](c2ccccc2)[C@@H]2CNCCO2)cc1 [Example 42, (S)-2-[(S)-Phenyl-(2-p-tolyl-pyridin-3-yloxy)-methyl]-morpholine] | –
1360 nM | 5.3 nM | CC(C)c1ccccc1O[C@@H](c1ccccc1)[C@@H]1CNCCO1 [Example 44, (S)-2-[(S)-(2-Isopropyl-phenoxy)-phenyl-methyl]-morpholine] | –
5630 nM | 6.5 nM | CC(C)Oc1ccccc1O[C@@H](c1ccccc1)[C@@H]1CNCCO1 [Example 46, (S)-2-[(S)-(2-Isopropoxy-phenoxy)-phenyl-methyl]-morpholine] | –
52 nM | 8.4 nM | Fc1ccc([C@H](Oc2ccccc2Br)[C@H]2CNCCO2)cc1 [Example 47, (R)-2-[(S)-(2-Bromo-phenoxy)-(4-fluoro-phenyl)-methyl]-morpholine] | –
729 nM | 8.9 nM | Cc1ccccc1O[C@@H](c1ccccc1)[C@@H]1CNCCO1 [Example 49, (S)-2-((S)-Phenyl-o-tolyloxy-methyl)-morpholine] | –
259 nM | 5.9 nM | CSc1ccccc1O[C@@H](c1ccccc1)[C@@H]1CNCCO1 [Example 53, (S)-2-[(S)-(2-Methylsulfanyl-phenoxy)-phenyl-methyl]-morpholine] | –

Continued, compound first:

SMILES | Ki [1] | Ki ([2]; read-out: hNET (Ki)) | Ki ([2]; hNET (Ki))
CCOC(=O)c1ccccc1O[C@@H](c1ccccc1)[C@@H]1CNCCO1 [Example 15, (2S,3S)-2-(Morpholin-2-yl-phenyl-methoxy)-benzoic acid ethyl ester] | 3770 nM | 15 nM | –
CCOc1ccccc1O[C@H](c1ccccn1)[C@@H]1CNCCO1 [Example 20, (S)-2-[(R)-(2-Ethoxy-phenoxy)-pyridin-2-yl-methyl]-morpholine] | ≥ 10000 nM | 593 nM | –
CCOc1ccccc1O[C@@H](c1ccccn1)[C@@H]1CNCCO1 [Example 21, (S)-2-[(S)-(2-Ethoxy-phenoxy)-pyridin-2-yl-methyl]-morpholine] | 2500 nM | 6.8 nM | –
N#Cc1ccccc1OC(c1cccnc1)[C@@H]1CNCCO1 (stereo partly drawn) [Example 24, (2S,3R)-2-(Morpholin-2-yl-pyridin-3-yl-methoxy)-benzonitrile] | 7720 nM | 210 nM | –
FC(F)(F)Oc1ccccc1O[C@@H](c1cccnc1)[C@H]1CNCCO1 [Example 26, (R)-2-[(S)-Pyridin-3-yl-(2-trifluoromethoxy-phenoxy)-methyl]-morpholine] | 2440 nM | 359 nM | –
Fc1ccc(O[C@H](c2ccccn2)[C@H]2CNCCO2)c(F)c1 [Example 27] | 412 nM | 7900 nM | –
Fc1ccc(O[C@@H](c2ccccn2)[C@H]2CNCCO2)c(F)c1 [Example 28] | 1410 nM | 8410 nM | –
[O-][n+]1ccccc1O[C@@H](c1ccccc1)[C@@H]1CNCCO1 [Example 29, (S)-2-[((S)-1-Oxy-pyridin-2-yloxy)-phenyl-methyl]-morpholine] | ≥ 10000 nM | 154 nM | –
Fc1ccc(Oc2ncccc2OC[C@@H]2CNCCO2)cc1 [Example 32, (S)-2-[2-(4-Fluoro-phenoxy)-pyridin-3-yloxymethyl]-morpholine] | ≥ 10000 nM | 36 nM | –
CCOc1ccccc1OC(CC1CCCCC1)[C@@H]1CNCCO1 (stereo partly drawn) [Example 37, (S)-2-[(S)-2-Cyclohexyl-1-(2-ethoxy-phenoxy)-ethyl]-morpholine and (2S,3-R)-2-[2-Cyclohexyl-1-(2-ethoxy-phenoxy)-ethyl]-morpholine] | 163 nM | 12 nM | –
CCOc1ccccc1O[C@@H](CC(C)C)[C@@H]1CNCCO1 [Example 38, (S)-2-[(S)-1-(2-Ethoxy-phenoxy)-3-methyl-butyl]-morpholine] | 4100 nM | 517 nM | –
C=CCc1ccccc1O[C@@H](c1ccccc1)[C@@H]1CNCCO1 [Example 39, (S)-2-[(S)-(2-Allyl-phenoxy)-phenyl-methyl]-morpholine] | 475 nM | 3.7 nM | –
c1ccc([C@H](Oc2ccc3occc3c2)[C@@H]2CNCCO2)cc1 [Example 48, (S)-2-[(S)-(Benzofuran-5-yloxy)-phenyl-methyl]-morpholine] | 10 nM | 31 nM | –
CCOc1ccccc1O[C@@H](C1CCCCC1)[C@@H]1CNCCO1 [Example 51, (S)-2-[(S)-Cyclohexyl-(2-ethoxy-phenoxy)-methyl]-morpholine] | ≥ 10000 nM | 16 nM | –
c1ccc([C@H](Oc2ccccc2N2CCNCC2)[C@@H]2CNCCO2)cc1 [Example 52, (S)-2-[(S)-Phenyl-(2-piperazin-1-yl-phenoxy)-methyl]-morpholine] | 1350 nM | – | 1620 nM
CS(=O)(=O)c1ccccc1O[C@@H](c1ccccc1)[C@@H]1CNCCO1 [Example 54, (S)-2-[(S)-(2-Methanesulfonyl-phenoxy)-phenyl-methyl]-morpholine] | ≥ 10000 nM | 1310 nM | –
c1ccc([C@H](Oc2ccccc2C2CCCC2)[C@@H]2CNCCO2)cc1 [Example 55, (S)-2-[(S)-(2-Cyclopentyl-phenoxy)-phenyl-methyl]-morpholine] | 2240 nM | 12 nM | –

Reference: patent US7659394B2 (Pfizer Inc, priority 2004, dated 2010)
